Like-named read-outs stand apart in the source and are kept apart here.
Columns and labels:
[1] = DPPH free radical scavenging assay
Procedure: The free radical scavenging abilities of the extracts were determined using 2,2- Diphenyl-1-picrylhydrazyl (DPPH) assay modified by Brand-Williams et al. with some modification. In oxidized form of DPPH have deep violet color. On getting electrons from antioxidants the deep violet color changes to yellow color. DPPH solution was prepared by dissolving 20 mg in 100 ml methanol (stock solution). From this solution 3 ml were taken and its absorbance was adjusted to 0.75 at 515 nm (control solution). For the formation of free radical, the stock DPPH solution was covered with aluminum foil and kept in dark place for 24 h. For the preparation of stock solutions, 5 mg of each extracts were dissolved in 5 ml of methanol (5000 μg/5 ml). Different dilution (1000, 500, 250, 125 and 62.5 μg/ml) were prepared from stock solutions through serial dilution. About 2 ml from each dilution were mixed with 2 ml of DPPH solution and incubated for 15 min in darkness. The percentage inhibition of DPPH free radical by extracts was calculated using the following formula: 1 %inhibition=A−B/AX100
Where A is the absorbance of DPPH in oxidized state and B is the absorbance of mixture after 15 min of reaction. Ascorbic acid was used as standard antioxidant.

[2] = ABTS free radical scavenging assay
Procedure: These two solutions were mixed thoroughly and kept in dark overnight for the formation of free radical. About 3 ml were taken from this stock solution and its absorbance was adjusted to 0.76 at 745 nm (control solution). About 300 μl of test samples were mixed with 3 ml of ABTS solution and incubated for 15 min at 25 °C. The absorbance of the mixture was measured using a double beam spectrophotometer at 745 nm. The same procedure was followed for the preparation of different dilution of ascorbic acid (positive control). The data was recorded in triplicate and percent ABTS free radicals scavenging activities were calculated using Eq. 1.

[3] = target: T1, butyryl cholinesterase from equine (Equus caballus, UniProt P81908); assay: Butyrylcholinesterase inhibition (Ellman's assay); format: biochemical; details: for inhibition at 125 µg/mL: 125 μg/mL; for inhibition at 1000 µg/mL: 1000 μg/mL
T1 construct: purchased Sigma-Aldrich USA
Procedure: Acetyl cholinesterase (AChE) and butyryl cholinesterase (BChE) were used to evaluate the enzyme inhibitory potential of Bergenia ciliata rhizome extracts and isolated compounds using Ellman’s assay [18]. The mentioned enzymes when act on their respective substrates acetylthiocholine iodide and butyrylthiocholine iodide hydrolyze them which then on complexation with 5-thio-2-nitrobenzoate anion formed from DTNB give yellow color. The color change is recorded after 15 min by spectrophotometer. Phosphate buffer (pH = 8) was prepared by mixing 1.36 g/100 mL, potassium dihydrogen phosphate and 1.74 g/100 mL di-potassium hydrogen phosphate (6 and 94% respectively). The AChE solution was prepared by dissolving 0.5 mg of enzyme in 0.5 ml of phosphate buffer to get 1000 unit/ml and BChE solution was also prepared by dissolving 1 mg in 1 ml of phosphate buffer to get 10 unit/ml. These two solutions were further diluted by phosphate buffer till a final concentration of 0.03 unit/ml and 0.1 unit/ml respectively. DTNB solution (0.0002 M) and ATChI and BTChI (0.0005 M) were prepared and kept in reagent bottles in refrigerator before use.
To each test tube, 100 μl of enzyme and DTNB solutions were added and incubated for 15 min at 25 °C. After this 100 μl substrates (AChEI, BChEI) were added to each test tube and allowed to stand for 15 min. The absorbance of mixtures were recorded at 412 nm. A negative control was prepared by mixing all the above mention components except plant extracts. […] For each sample absorption was recorded for 4 minutes. Percent activities of enzyme and percent inhibition were calculated using following relations. 2 V=∆Abs/∆T 3 %enzyme activity=V/Vmaxx100
Where V is the rate of reaction in the presence of inhibitor and Vmax is the rate of reaction without inhibitor.

[4] = target: T2, acetyl cholinesterase from Electric eel (type-VI-S) (Electrophorus electricus, UniProt O42275); assay: biochemical; details: isolated compounds, Table 6; for inhibition at 125 µg/mL: 125 μg/mL; for inhibition at 125 µg/mL / inhibition at 250 µg/mL / inhibition at 500 µg/mL / inhibition at 1000 µg/mL: read-out: AChE percent inhibition (mean ± S.E.M); for inhibition at 250 µg/mL: 250 μg/mL; for inhibition at 500 µg/mL: 500 μg/mL; for inhibition at 1000 µg/mL: 1000 μg/mL; for IC50: read-out: AChE IC50 (converted)
T2 construct: purchased Sigma-Aldrich USA type-VI-S

[5] = 62.5 μg/mL, isolated compounds, Table 5
[6] = 125 μg/mL, isolated compounds, Table 5
[7] = 250 μg/mL, isolated compounds, Table 5
[8] = 500 μg/mL, isolated compounds, Table 5
[9] = 1000 μg/mL, isolated compounds, Table 5
[10] = isolated compounds, Table 6, read-out: BChE percent inhibition (mean ± S.E.M)
[11] = 250 μg/mL, isolated compounds, Table 6, read-out: BChE percent inhibition (mean ± S.E.M)
[12] = 500 μg/mL, isolated compounds, Table 6, read-out: BChE percent inhibition (mean ± S.E.M)
[13] = isolated compounds, Table 6, read-out: BChE IC50 (converted)

T1 sequence (P81908 whole entry): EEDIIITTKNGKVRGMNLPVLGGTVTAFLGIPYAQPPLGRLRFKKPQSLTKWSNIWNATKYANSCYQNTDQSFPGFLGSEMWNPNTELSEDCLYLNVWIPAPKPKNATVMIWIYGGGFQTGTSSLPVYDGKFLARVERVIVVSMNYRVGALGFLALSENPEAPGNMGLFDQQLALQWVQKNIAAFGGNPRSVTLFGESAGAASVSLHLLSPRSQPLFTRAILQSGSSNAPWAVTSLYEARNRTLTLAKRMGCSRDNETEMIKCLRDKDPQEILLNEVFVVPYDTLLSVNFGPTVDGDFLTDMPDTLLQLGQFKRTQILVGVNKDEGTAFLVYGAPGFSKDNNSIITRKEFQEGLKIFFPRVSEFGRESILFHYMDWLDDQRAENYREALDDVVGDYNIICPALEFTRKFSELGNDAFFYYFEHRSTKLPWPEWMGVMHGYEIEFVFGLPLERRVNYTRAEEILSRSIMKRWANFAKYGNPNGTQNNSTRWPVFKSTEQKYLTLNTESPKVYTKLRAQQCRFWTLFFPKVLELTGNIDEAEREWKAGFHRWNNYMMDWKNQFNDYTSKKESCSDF
T2 sequence (O42275 24-633): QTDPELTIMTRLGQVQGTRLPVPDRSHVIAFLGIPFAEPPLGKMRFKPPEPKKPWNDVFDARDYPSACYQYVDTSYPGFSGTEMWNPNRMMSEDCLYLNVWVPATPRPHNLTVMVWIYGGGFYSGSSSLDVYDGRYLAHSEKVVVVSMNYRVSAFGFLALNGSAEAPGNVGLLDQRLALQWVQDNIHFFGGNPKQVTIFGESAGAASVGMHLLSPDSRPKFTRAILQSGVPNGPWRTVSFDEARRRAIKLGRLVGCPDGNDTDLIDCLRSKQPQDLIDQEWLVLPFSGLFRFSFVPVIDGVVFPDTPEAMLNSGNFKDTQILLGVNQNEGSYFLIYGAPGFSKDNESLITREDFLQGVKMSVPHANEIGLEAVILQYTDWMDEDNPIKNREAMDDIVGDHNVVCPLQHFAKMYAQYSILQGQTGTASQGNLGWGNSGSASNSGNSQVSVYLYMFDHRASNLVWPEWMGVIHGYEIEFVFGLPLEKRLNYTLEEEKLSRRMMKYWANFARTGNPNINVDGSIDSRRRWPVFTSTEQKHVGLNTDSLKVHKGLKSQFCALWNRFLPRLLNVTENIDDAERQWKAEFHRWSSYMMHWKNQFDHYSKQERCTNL

Compound | DPPH percent inhibition (mean ± S.E.M) [1, 5] | DPPH percent inhibition (mean ± S.E.M) [1, 6] | DPPH percent inhibition (mean ± S.E.M) [1, 7] | DPPH percent inhibition (mean ± S.E.M) [1, 8] | DPPH percent inhibition (mean ± S.E.M) [1, 9] | DPPH IC50 ([1]; isolated compounds, Table 5) [µg/mL] | ABTS percent inhibition (mean ± S.E.M) [2, 5] [%] | ABTS percent inhibition (mean ± S.E.M) [2, 6] [%] | ABTS percent inhibition (mean ± S.E.M) [2, 7] | ABTS percent inhibition (mean ± S.E.M) [2, 8] | ABTS percent inhibition (mean ± S.E.M) [2, 9] | ABTS IC50 ([2]; isolated compounds, Table 5) [µg/mL] | inhibition at 125 µg/mL [3, 10] [%] | inhibition at 250 µg/mL [3, 11] [%] | inhibition at 500 µg/mL [3, 12] [%] | inhibition at 1000 µg/mL [3, 10] [%] | inhibition at 125 µg/mL [4] [%] | inhibition at 250 µg/mL [4] [%] | inhibition at 500 µg/mL [4] [%] | inhibition at 1000 µg/mL [4] [%] | also measured
O=C1O[C@H]([C@@H](O)CO)C(O)=C1O [Ascorbic acid, reference compound] | 53.78 ± 0.76% | 62.90 ± 0.85% | 71.34 ± 2.16% | 80.45 ± 0.96% | 92.67 ± 0.73% | 50 | 50.88 ± 0.32 | 58.90 ± 0.48 | 68.93 ± 0.45% | 80.29 ± 0.79% | 89.94 ± 0.86% | 62 | – | – | – | – | – | – | – | – | DPPH percent inhibition (mean ± S.E.M) ([1]; 62.5 μg/mL, extracts, Table 2): 52.88 ± 0.32%; DPPH percent inhibition (mean ± S.E.M) ([1]; 125 μg/mL, extracts, Table 2): 62.90 ± 0.48%; DPPH percent inhibition (mean ± S.E.M) ([1]; 250 μg/mL, extracts, Table 2): 71.93 ± 0.45%; DPPH percent inhibition (mean ± S.E.M) ([1]; 500 μg/mL, extracts, Table 2): 80.29 ± 0.79%; DPPH percent inhibition (mean ± S.E.M) ([1]; 1000 μg/mL, extracts, Table 2): 92.94 ± 0.86%; DPPH IC50 ([1]; extracts, Table 2): 50 µg/mL; ABTS percent inhibition (mean ± S.E.M) ([2]; 62.5 μg/mL, extracts, Table 2): 49.78 ± 0.76%; ABTS percent inhibition (mean ± S.E.M) ([2]; 125 μg/mL, extracts, Table 2): 58.90 ± 0.85%; ABTS percent inhibition (mean ± S.E.M) ([2]; 250 μg/mL, extracts, Table 2): 68.34 ± 2.16%; ABTS percent inhibition (mean ± S.E.M) ([2]; 500 μg/mL, extracts, Table 2): 80.45 ± 0.96%; ABTS percent inhibition (mean ± S.E.M) ([2]; 1000 μg/mL, extracts, Table 2): 89.67 ± 0.73%; ABTS IC50 ([2]; extracts, Table 2): 64 µg/mL
COc1ccc2c3c1O[C@H]1C[C@@H](O)C=C[C@@]31CCN(C)C2 [Galanthamine, reference compound] | – | – | – | – | – | – | – | – | – | – | – | – | 62.43 ± 0.39 | 71.8 ± 0.48 | 86.51 ± 0.77 | 92.26 ± 0.92 | – | – | – | – | inhibition at 250 µg/mL ([3]; 250 μg/ml, extracts, Table 3, read-out: Percent BChE (mean ± SEM) inhibition): 76.72 ± 0.72%; inhibition at 500 µg/mL ([3]; 500 μg/ml, extracts, Table 3, read-out: Percent BChE (mean ± SEM) inhibition): 84.7 ± 1.2%
Oc1cccc(O)c1O [Pyrogallol, Benzene-1,2,3-triol] | 48.72 ± 0.89 ^ns % | 59.93 ± 2.18 ^ns % | 70.30 ± 1.05 ^ns % | 81.64 ± 1.33 ^ns % | 89.35 ± 0.92 ^ns % | 68 | 39.60 ± 1.39 | 53.26 ± 1.62 | 66.42 ± 0.90 ^ns % | 77.81 ± 1.09 ^ns % | 87.02 ± 0.81 ^ns % | 85 | 58.3 ± 0.93 | 71.2 ± 1.38 | 80.35 ± 0.3 | 92 ± 1.89 | 66.2 ± 2.14 | 80.12 ± 0.62 | 87.4 ± 1.51 | 94.35 ± 0.72 | IC50 [4]: 222 µM; IC50 [3, 13]: 555 µM
O=c1c(O)c(-c2ccc(O)cc2O)oc2cc(O)cc(O)c12 [Morin, 2-(2,4-Dihydroxyphenyl)-3,5,7-trihydroxychromen-4-one] | 40.85 ± 0.94 % | 48.72 ± 1.11 ^ns % | 60.25 ± 2.28 % | 72.72 ± 1.56 % | 83.93 ± 0.72 % | 105 | 30.50 ± 1.43 | 44.15 ± 0.56 | 58.04 ± 2.44 % | 70.67 ± 1.02 % | 80.86 ± 1.09 % | 145 | 51.1 ± 0.56 | 60.51 ± 0.5 | 68.4 ± 2.22 | 80.46 ± 0.76 | 56.3 ± 1.45 | 68.8 ± 0.8 | 77.2 ± 0.91 | 85.5 ± 3.19 | IC50 [4]: 212 µM; IC50 [3, 13]: 384 µM
C[C@@H]1O[C@@H](OC[C@H]2O[C@@H](Oc3c(-c4ccc(O)c(O)c4)oc4cc(O)cc(O)c4c3=O)[C@H](O)[C@@H](O)[C@@H]2O)[C@H](O)[C@H](O)[C@H]1O [Rutin, 3,3,4,5,7-pentadroxyflavones-3-rutinoside] | 35.38 ± 2.28 % | 46.63 ± 1.17 % | 57.47 ± 0.93 % | 68.43 ± 1.40 % | 80.90 ± 1.27 % | 150 | 29.75 ± 2.18 | 44.30 ± 0.79 | 57.56 ± 1.42 % | 69.05 ± 0.64 % | 78.33 ± 0.63 % | 183 | 45 ± 3.79 | 56.7 ± 0.7 | 62.5 ± 1.72 | 72 ± 0.86 | 48.1 ± 0.64 | 60.2 ± 2.35 | 66.72 ± 0.62 | 75.1 ± 1.41 | IC50 [4]: 193 µM; IC50 ([3]; BChE IC50, isolated compounds, Table 6): 282 µM
